# In patent US12605390B2, “Treatment of cancer and inhibition of metastasis” (Celex Oncology Innovations Limited, priority 2017, dated 2026):
# Read-outs that look alike come from different tables or passages of the source.
# What was measured:
# MDA-MB-231 cells [1] = type: cell-based, human; conditions: 20 μM, 48 hours
# Procedure: Cells were seeded at a density of 5×10^4 cells/ml in 35 mm Falcon tissue culture dishes. After treatment with a given drug, the medium was removed and replaced with 800 μl of growth medium and 200 μl 0.4% trypan blue (Sigma, Dorset, UK) and incubated for 10 minutes in the incubator. The trypan blue was removed and the cells were washed once with 3 ml growth medium. For each treatment, cells from 30 random fields of view were counted under 100× magnification. The number of dead cells, stained blue, was counted in each field of view. The data were expressed as percentages of living cells out of the total number of cells in given fields of view. The percentages were averaged and differences between control and treatment were compared from at least three independent experiments.
# Cell viability and therefore drug toxicity was determined using the trypan blue assay. The procedure follows the principle that viable cells surrounded by an intact double membrane cannot absorb the trypan blue dye, whereas dead and fragmented cells can. […]
# The solution was subsequently replaced with 0.2 ml of 0.4% trypan blue (Sigma-Aldrich) and 0.8 ml of media. […] Cell viability was determined by counting the proportion of viable and dead cells in 30 fields of view on each dish (Zeiss Axiovert 25 phase contrast microscope, ×40 magnification).
# MDA-MB-231 cells [2] = experiment: MTT proliferation assay; type: cell-based, human; conditions: 48 hours; for effect on cell proliferation versus negative controls: 10 μM, hypoxic and normoxic conditions
# Procedure: Cells were plated at 2×10^4 cells/ml in 24-well plates (Becton-Dickinson) and allowed to settle overnight. The cells were then treated for the required time of incubation (24 hours+), with medium changes every 24 hours. At the end of the treatment, the medium was removed, and this was followed by the colorimetric 3-[4,5-dimethylthiazol-2-yl]-2,5-diphenyltetrazolium bromide ([…]) assay (Grimes et al., 1995). Briefly, 0.1 ml MU (5 mg/ml made up in the growth medium) and 0.4 ml growth medium was added in each well and the plate was incubated for 3-4 hours at 37° C. The medium was then removed from the chambers and replaced with 0.5 ml dimethyl sulfoxide (DMSO) and 0.063 ml glycine buffer (0.1 M glycine and 0.1 M NaCl; pH 10.5). Absorbance at 570 nm was determined 15 minutes after the addition of the glycine buffer. Results were calculated as means of nine repeats of each of the treatment vs. control spectrophotometer readings from individual invasion wells.
# Proliferation was indirectly measured using MTT (3-(4,5-dimethylthiazolyl-2)-2,5-diphenyltetrazolium). In principle, MTT is taken up and processed by metabolically active cells, which produce formazan as a by-product. Formazan is a purple dye which can be quantified on a spectrophotometer, providing a link between absorbance readings (570 nm) and cell number.
# Cells were plated in 24-well plates at a density of 2×10^4 cells per well and pre-treated with 1 ml of the respective drug solutions (see FIG. 5.) for 48 hours in hypoxia and normoxia. 0.1 ml of MU (1 mg/ml) diluted in 0.4 ml of media was administered to each well, followed by 4 hours of incubation in dark, normoxic conditions (MU is light—sensitive). The solution was subsequently aspirated and 0.5 ml of 99.9% DMSO was added in combination with 75 μL glycine buffer. The dye was able to dissolve in DMSO during a 15 minute—incubation on a shaking platform at 150 cycles/minute. The absorbance was read using ELX800 Universal Microplate Reader (BioTek Instruments) with the background measuring 0.04. […]
# MDA-MB-231 cells [3] = experiment: Lateral motility (wound heal) assay; type: cell-based, human; conditions: 10 μM, hypoxic conditions
# Procedure: In order to determine lateral motility, a “wound-heal (“scratch”)” test was carried out, in which a scratch 504 of […] was made through the layer of cells, as shown in FIG. 5(b) which is a side sectional view of the cell culture dish. During the period of 24 hours following the formation of the scratch, the cells moved into the gap.
# 10^6 cells were plated in each 35×10 mm dish and kept in normoxic conditions to settle overnight. Each dish was marked by 15 parallel vertical lines and 3 non-overlapping horizontal lines. The media was refreshed and three wounds were made along the marked vertical lines using a 1 ml Gilson pipette tip. Floating cells were removed by 3 consecutive media washes and adherent cells were treated with 1 ml of the respective drug solution (10 μM Eleclazine/DMSO). The initial wound width (W0) was measured at 45 fixed points (where the vertical lines cross the wounds) using the graticule on a phase-contrast microscope (×10 magnification). Cells were then incubated in both normoxic and hypoxic conditions, with drug solutions being replaced every 24 hours. Wound width was measured every 12 hours and the motility of this breast cancer cell line was analysed using the “motility index” (MI=1-(Wt/W0)). A motility index of 1 accounts for complete wound closure, whereas MI=0 represents zero cell movement. […]
# MDA-MB-231 cells [4] = experiment: Matrigel invasion assay under hypoxia; type: cell-based, human
# Procedure: This assay is an extension of the transverse migration assay described above. To “invade”, the cells need both (i) to move as in the transverse migration assay and (ii) secrete a proteolytic enzyme to digest their surroundings. The ability of cells to invade neighbouring tissues by enzyme secretion was therefore assessed by using a layer of Matrigel™ (BD Biosciences) spread across the porous membrane of a Transwell® insert.
# 50 μl Matrigel™ was seeded at a 1:7 dilution (10 mg/ml stock) onto the inserts and left overnight. Prior to seeding with the cells the Matrigel™ was rehydrated using medium with no additions. This medium was removed prior to seeding the cells.
# Cells were plated in a 1-5% FBS chemotactic gradient overnight (12 hours).
# Invaded cells were fixed for 15 minutes with ice-cold methanol. […] The inserts were swabbed again and then washed in water and allowed to dry. Cells were then counted using twelve separate fields of view per insert (×200 magnification). If the difference in the average number of cells invading the two control inserts was more than 40%, the experiment was rejected.
# The matrigel solidified at 37° C. normoxia overnight and was hydrated at 37° C. normoxia for 3 hours using 0.5 ml FBS-free media. 300 μL of media containing 5% FBS was administered to the lower chamber and the same amount of media containing 1% FBS was added to the upper chamber (transwell filters). 2×10^4 cells were added to the 1% solution, allowing their invasion through the matrigel along the chemotactic gradient. Cells were left to settle and invade under hypoxic conditions overnight.
# neonatal Nav1.5 = experiment: Immunocytochemistry of nNav1.5 protein expression in MDA-MB-231 cells; type: cell-based, human; conditions: 10 μM, 24 hour treatment, normoxic and hypoxic conditions
# Procedure: Cells were pre-treated with either 10 μM Eleclazine or DMSO in both normoxic and hypoxic conditions for 24 hours. The following day, round 13 mm coverslips were placed into 24-well plates and incubated with 0.5 ml poly-L-lysine for 20 minutes. The solution was aspirated and 2×10^4 pre-treated cells were added on top of each coverslip. The wells were filled up to 0.5 ml with the respective drug solutions and cells were left to settle onto the coverslips in normoxic and hypoxic conditions overnight.
# Cells were washed with PBS and fixed by incubating coverslips with 0.5 ml 4% PFA (in PBS) for 15 minutes. Coverslips were then washed in PBS three times for 5 minutes. Half of the samples were permeabilised in 0.1% Saponin/PBS (4 minutes) followed by three 5 minute washes in PBS. Cells were blocked for 1 hour with 0.5 ml 5% BSA/PBS (pH 7.4). Coverslips were incubated with 70 μL NESOpAb (primary antibody specific for neonatal Nav1.5; 1:100 dilution) for 1 hour in a humidity chamber (room temperature). Three 5 minute PBS washes rinsed off residual NESOpAb and the secondary antibody (goat anti-rabbit IgG Alexa Fluor 568, 1:100 dilution) was administered for 1 hour in the dark. […]
# Imaging was conducted on a Zeiss axiovert 200 inverted microscope. […] The corrected total cell fluorescence was quantified using ImageJ.
# persistent current = target: T1, persistent current (Homo sapiens, UniProt Q14524); experiment: Patch-clamp (data not shown); type: cell-based; conditions: 10 μM
# T1 construct: transient and persistent sodium current, using the highly invasive human breast cancer cell line MDA-MB-231; endogenous in cells; host or cells: MDA-MB-231
# MDA-MB-231 cells [5] = conditions: 24 hours
structure (smiles),measurement,setting,value
"O=C1c2cc(-c3ccc(OC(F)(F)F)cc3)ccc2OCCN1Cc1ncccn1 [eleclazine, 4-(pyrimidin-2-ylmethyl)-7-(4-(trifluoromethoxy)phenyl)-3,4-dihydrobenzo[f][1,4]oxazepin-5(2H)-one]",average proportion of viable cells per field of view,MDA-MB-231 cells [1],99.96%
same,effect on cell proliferation versus negative controls,MDA-MB-231 cells [2],no statistically significant difference
same,reduction of lateral motility,MDA-MB-231 cells [3]; after 12 hours,5%
same,reduction of lateral motility,MDA-MB-231 cells [3]; after 48 hours,30%
same,effect on invasiveness,"MDA-MB-231 cells [4]; 0.5 μM, hypoxia (1% O2), 24 h pre-incubation, invasion over 16 h",does not affect invasiveness
same,"number of cells invading, median (interquartile range)","MDA-MB-231 cells [4]; 1 μM, hypoxia (1% O2), 24 h pre-incubation, invasion over 16 h, control 175.0 (113 & 255)",131.5 (100 & 175)
same,reduction of invasiveness,"MDA-MB-231 cells [4]; 5 μM, hypoxia",approximately 50%
same,effect on invasiveness (preliminary assays),"MDA-MB-231 cells [4]; 10 μM, hypoxic conditions",drastically reduced
same,"nNav1.5 protein expression, corrected total cell fluorescence (CTCF)",neonatal Nav1.5,statistically significant reduction
same,effect on persistent current,persistent current,effectively blocked
"COc1ccccc1OCC(O)CN1CCN(CC(=O)Nc2c(C)cccc2C)CC1 (centres unmarked) [ranolazine, reference compound]",effect on cell proliferation versus negative controls,MDA-MB-231 cells [2],no significant effect
same,effect on invasiveness,"MDA-MB-231 cells [4]; 5 μM, hypoxia (1% O2), 24 h pre-incubation, invasion over 16 h",suppress invasiveness significantly
"NC1=N[C@H](O)[C@H]2[C@H]3O[C@]4(O)O[C@@H]([C@@H](O)[C@@]2(N1)[C@@H]4O)[C@]3(O)CO [TTX, tetrodotoxin, reference compound]",effect on invasiveness,MDA-MB-231 cells [4],decreases
OO [hydrogen peroxide],"mean detachment negative pressure, change versus untreated cells",MDA-MB-231 cells [5]; 1 μM,approximately −9%
same,"mean detachment negative pressure, change versus untreated cells",MDA-MB-231 cells [5]; 10 μM,approximately −14%
same,"mean detachment negative pressure, change versus untreated cells",MDA-MB-231 cells [5]; 100 μM,approximately −20%
CC[N+](CC)(CC)CC [TEA],reduction of cell proliferation,"MDA-MB-231 cells [2]; 2 mM, positive control",approximately 50%
